Source: patent publication US20240368406A1, “STABLE LIQUID PHANTOM FOR NEAR-INFRARED FLUORESCENCE VERIFICATION” (SURGVISION GMBH, priority 2021, published 2024)

Assays:
[1] = cited from earlier work
[2] = Stability of the phantom solutions at +2-8° C. (residual absorbance, UV/VIS); type: physicochemical; details: +2-8° C.
Procedure: Several stability studies were performed to evaluate the effect of different buffers, additives such as excipients or preservatives, and storage conditions on the dye formulation. In particular the stability of the formulations after storage at +2-8° C. in a refrigerator was firstly investigated.
(§1) Stability was measured as reduction in the absorbance at the maximum wavelength of the dye acquired using a UV/VIS spectrophotometer, denoting reduction of the dye monomer content in solution. All the results were then reported as residual percentage vs the baseline (T=0), wherein at time=0 the percentage is 100%. A decrease in absorbance is associated with the reduction of the concentration of the dye in the formulation buffer, indicating low stability and degradation of the main chromophore species.
In the Tables below the residual absorbance of different dyes, i.e. […] and S0456, in some representative organic buffering solutions is reported after storage of the formulations at +2-8° C.

[3] = Stability of the phantom solutions at 25° C. (residual absorbance); type: physicochemical; details: storage at 25° C. in dark
Procedure: as §1
The stability of the formulations under stressed conditions was also investigated.

[4] = Stability of the phantom solutions at +2-8° C. in the presence of additives (residual absorbance); type: physicochemical
Procedure: as §1
The effect of the presence of an additive on the stability of the formulations of the invention has been also investigated.
The preparation of the above buffers is described below:
50 mM HEPES (pH 7.4)+0.04% Tween 20: to prepare 100 mL of buffering solution, 1.19 g of HEPES were dissolved in 80 mL of water; 40 μL of Tween 20 were added and the pH was adjusted to 7.4 with 0.1 M HCl. The buffering solution was then brought to 100 mL volume with water and filtered on 0.22 μm membrane in sterile conditions.
50 mM HEPES (PH 7.4)+0.02% Sodium Azide: to prepare 100 mL of buffering solution, 1.19 g of HEPES and 20 mg of Sodium Azide were dissolved in 80 mL of water and the pH was adjusted to 7.4 with 0.1 M HCl. The buffering solution was then brought to 100 mL volume with water and filtered on 0.22 μm membrane in sterile conditions.
10 mM HEPES (PH 7.0)+10% EtOH: to prepare 100 mL of buffering solution, 0.24 g of HEPES were dissolved in 80 mL of water and the pH was adjusted to 7.0 with 0.1 M HCl.
Then, 10 mL of 100% Ethanol were added. The buffering solution was then brought to 100 mL volume with water and filtered on 0.22 μm membrane in sterile conditions.
Analogous solutions were prepared with the same procedure for MOPS, BES and TRICINE buffers.

[5] = Stability of the phantom solutions at +2-8° C. during long-term storage (residual absorbance); type: physicochemical; details: 3 μM dye in HEPES 50 mM, pH 7.4, +2-8° C. protected from light
Procedure: Stability was measured as reduction in the absorbance at the maximum wavelength of the dye acquired using a UV/VIS spectrophotometer, denoting reduction of the dye monomer content in solution. […] A decrease in absorbance is associated with the reduction of the concentration of the dye in the formulation buffer, indicating low stability and degradation of the main chromophore species. The stability of the formulations under long-term storage conditions was also investigated. In particular, samples of 3 μM IRDye […] and 3 μM IRDye 800BK dissolved in HEPES buffer were stored refrigerated at +2-8° C. protected from light exposure for at least 6 months. For the long-term stability study at 2-8° C., samples of.

SMILES: O=S(=O)(O)CCN(CCO)CCO [BES, 2-[bis(2-hydroxyethyl)amino]ethanesulfonic acid]
- pKa (20° C.) [1]: 7.2

SMILES: CC1(C)C(=CC=C2CCCC(C=CC3=[N+](CCCCCC(=O)[O-])c4ccc(S(=O)(=O)[O-])cc4C3(C)C)=C2Oc2ccc(S(=O)(=O)[O-])cc2)N(CCCCS(=O)(=O)[O-])c2ccc(S(=O)(=O)[O-])cc21.[Na+].[Na+].[Na+].[Na+] [IRDye 800CW]
- Residual absorbance percentage ([2]; 3 μM dye in HEPES (50 mM, pH 7.4), 1 week (Table II)): 100.9%
- Residual absorbance percentage ([2]; 3 μM dye in HEPES (50 mM, pH 7.4), 2 weeks (Table II)): 100.3%
- Residual absorbance percentage ([2]; 3 μM dye in HEPES (50 mM, pH 7.4), 4 weeks (Table II)): 99.3%
- Residual absorbance percentage ([2]; 3 μM dye in MES (50 mM, pH 6.2), 1 week): 99.4%
- Residual absorbance percentage ([2]; 3 μM dye in MES (50 mM, pH 6.2), 2 weeks): 96.7%
- Residual absorbance percentage ([2]; 3 μM dye in MES (50 mM, pH 6.2), 4 weeks): 93.2%
- Residual absorbance percentage ([2]; 3 μM dye in MOPS (50 mM, pH 7.0), 1 week (Table II)): 99.3%
- Residual absorbance percentage ([2]; 3 μM dye in MOPS (50 mM, pH 7.0), 2 weeks (Table II)): 98.0%
- Residual absorbance percentage ([2]; 3 μM dye in MOPS (50 mM, pH 7.0), 4 weeks (Table II)): 95.2%
- Residual absorbance percentage ([2]; 3 μM dye in PBS (50 mM, pH 7.4), 1 week): 100%
- Residual absorbance percentage ([2]; 3 μM dye in PBS (50 mM, pH 7.4), 2 weeks): 92.9%
- Residual absorbance percentage ([2]; 3 μM dye in PBS (50 mM, pH 7.4), 4 weeks): 79.1%
- Residual absorbance percentage ([2]; 3 μM dye in PBS (50 mM, pH 7.4), 4 weeks, listed as IRDye 8000W): lower than 80%
- Residual absorbance percentage ([2]; 3 μM dye in TRICINE (50 mM, pH 8.0), 1 week (Table II)): 100.5%
- Residual absorbance percentage ([2]; 3 μM dye in TRICINE (50 mM, pH 8.0), 2 weeks (Table II)): 99.9%
- Residual absorbance percentage ([2]; 3 μM dye in TRICINE (50 mM, pH 8.0), 4 weeks (Table II)): 99.3%
- Residual absorbance percentage ([3]; 3 μM dye in HEPES (50 mM), 1 week): 100.9%
- Residual absorbance percentage ([3]; 3 μM dye in HEPES (50 mM), 2 weeks): 98.4%
- Residual absorbance percentage ([3]; 3 μM dye in MOPS (50 mM), 1 week): 99.7%
- Residual absorbance percentage ([3]; 3 μM dye in MOPS (50 mM), 2 weeks): 97.3%
- Residual absorbance percentage ([4]; 3 μM dye in HEPES (50 mM, pH 7.4) +0.02% sodium azide, +2-8° C., 1 week): 96.9%
- Residual absorbance percentage ([4]; 3 μM dye in HEPES (50 mM, pH 7.4) +0.02% sodium azide, +2-8° C., 2 weeks): 92.4%
- Residual absorbance percentage ([4]; 3 μM dye in HEPES (50 mM, pH 7.4) +0.02% sodium azide, +2-8° C., 4 weeks): 89.1%
- Residual absorbance percentage ([4]; 3 μM dye in HEPES (50 mM, pH 7.4) +0.04% Tween 20, +2-8° C., 1 week): 100.5%
- Residual absorbance percentage ([4]; 3 μM dye in HEPES (50 mM, pH 7.4) +0.04% Tween 20, +2-8° C., 2 weeks): 95.8%
- Residual absorbance percentage ([4]; 3 μM dye in HEPES (50 mM, pH 7.4) +0.04% Tween 20, +2-8° C., 4 weeks): 92.4%
- Residual absorbance percentage ([4]; 3 μM dye in TRICINE (50 mM, pH 8.0) +0.02% sodium azide, +2-8° C., 1 week): 97.7%
- Residual absorbance percentage ([4]; 3 μM dye in TRICINE (50 mM, pH 8.0) +0.02% sodium azide, +2-8° C., 2 weeks): 93.0%
- Residual absorbance percentage ([4]; 3 μM dye in TRICINE (50 mM, pH 8.0) +0.02% sodium azide, +2-8° C., 4 weeks): 89.8%
- Residual absorbance percentage ([4]; 3 μM dye in TRICINE (50 mM, pH 8.0) +0.04% Tween 20, +2-8° C., 1 week): 97.7%
- Residual absorbance percentage ([4]; 3 μM dye in TRICINE (50 mM, pH 8.0) +0.04% Tween 20, +2-8° C., 2 weeks): 93.0%
- Residual absorbance percentage ([4]; 3 μM dye in TRICINE (50 mM, pH 8.0) +0.04% Tween 20, +2-8° C., 4 weeks): 89.8%
- Residual absorbance percentage ([5]; 1 month): 99.3%
- Residual absorbance percentage ([5]; 3 months): 97.7%
- Residual absorbance percentage ([5]; 6 months): 96.2%

SMILES: CC1(C)C(/C=C/C2=C(Cl)C(=C/C=C3/N(CCCCS(=O)(=O)[O-])c4ccc(S(=O)(=O)[O-])cc4C3(C)C)/CCC2)=[N+](CCCCS(=O)(=O)[O-])c2ccc(S(=O)(=O)[O-])cc21.[Na+].[Na+].[Na+] [S0456]
- Residual absorbance percentage ([2]; 3 μM dye in HEPES (50 mM, pH 7.4), 1 week (Table III)): 99.0%
- Residual absorbance percentage ([2]; 3 μM dye in HEPES (50 mM, pH 7.4), 2 weeks (Table III)): 98.5%
- Residual absorbance percentage ([2]; 3 μM dye in HEPES (50 mM, pH 7.4), 4 weeks (Table III)): 96.9%
- Residual absorbance percentage ([2]; 3 μM dye in MOPS (50 mM, pH 7.0), 1 week (Table III)): 98.8%
- Residual absorbance percentage ([2]; 3 μM dye in MOPS (50 mM, pH 7.0), 2 weeks (Table III)): 98.5%
- Residual absorbance percentage ([2]; 3 μM dye in MOPS (50 mM, pH 7.0), 4 weeks (Table III)): 96.1%
- Residual absorbance percentage ([2]; 3 μM dye in TRICINE (50 mM, pH 8.0), 1 week (Table III)): 99.7%
- Residual absorbance percentage ([2]; 3 μM dye in TRICINE (50 mM, pH 8.0), 2 weeks (Table III)): 98.7%
- Residual absorbance percentage ([2]; 3 μM dye in TRICINE (50 mM, pH 8.0), 4 weeks (Table III)): 97.9%
